Data: publication PMC7998669, “7-(2-Anilinopyrimidin-4-yl)-1-benzazepin-2-ones Designed by a “Cut and Glue” Strategy Are Dual Aurora A/VEGF-R Kinase Inhibitors” (Molecules, 2021)

Columns and labels:
Assay in all cases: radiometric 33PanQinase protein kinase assay
Format in all cases: biochemical
Conditions in all cases: for remaining activity at 10 µM: 10 µM compound, residual kinase activity; for IC50: radiometric assay, 1 µM ATP
Aurora-A = target: T1, Aurora-A (Homo sapiens, UniProt O14965)
T1 construct: host or cells: Sf9 (baculovirus)
T1 sequence (O14965 1-403): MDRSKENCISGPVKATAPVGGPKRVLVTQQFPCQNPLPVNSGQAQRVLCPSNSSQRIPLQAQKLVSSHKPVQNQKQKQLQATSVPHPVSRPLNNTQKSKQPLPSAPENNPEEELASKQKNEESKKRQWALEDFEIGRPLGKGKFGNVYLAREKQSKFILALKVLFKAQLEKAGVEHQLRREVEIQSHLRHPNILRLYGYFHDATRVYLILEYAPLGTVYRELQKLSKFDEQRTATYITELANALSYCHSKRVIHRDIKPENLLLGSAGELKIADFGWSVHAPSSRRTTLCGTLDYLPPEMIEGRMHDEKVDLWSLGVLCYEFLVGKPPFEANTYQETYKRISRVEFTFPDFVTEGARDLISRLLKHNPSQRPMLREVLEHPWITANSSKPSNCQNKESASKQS
Protocol: (§1) The inhibitory activity of prototype 2a was determined in a panel of 24 tumor-relevant protein kinases using a radiometric assay. Only the kinases Aurora A, VEGF-R2 and VEGF-R3 were inhibited with single digit micromolar IC50 values (Table 2). Structural modifications were then implemented, particularly directed to improve inhibition of Aurora A. The so-designed congeners with small substituents at the aniline ring 2b–2n were examined for inhibition of Aurora A and of VEGF-R2, VEGF-R3 and Aurora B for comparison (Table 3).
(§2) The screening for protein kinase inhibition was performed with the radiometric ^33Panqinase activity assay at Reaction Biology Europe GmbH (Freiburg) using a robotic system (Beckmann Coulter/SagianRoboter) and 96-well plates (FlashPlates, Perkin/Elmer/NEN, Boston, MA, USA). In brief, the transfer of ^33P-phosphate into the substrate was measured with a microplate scintillation counter (Microbeta Trilux, Wallace). Protein kinases were expressed in Sf9 cells as recombinant glutathione S-transferase (GST) or polyhistidine (His)-tagged proteins in baculovirus. Isolation and purification of expressed kinases were performed with affinity chromatography by using GSH agarose (Sigma) or Ni-NTA agarose (Qiagen). The standard solution for each enzyme contained: 60 mM HEPES-NaOH (pH 7.5), 3 mM MgCl2, 3 µM sodium orthovanadate, 1.2 mM DTT, 50 µg/mL PEG20000 and 1 µM [γ-^33P]-ATP (approximately 5 × 10^5 cpm per well). In chronological order the reaction mixture was prepared: 20 µL standard solution, 5 µL ATP solution in water, 5 µL of the compound in 10% DMSO and 20 µL of enzyme/substrate mixture (50:50). Each kinase contained different substrates in different concentrations: 125 ng/50 µL Poly(Glu, Tyr)4:1 for 20 ng/50 µL IGF1-R, 25 ng/50 µL IGF1-R, 20 ng/50 µL EGF-R, 25 ng/50 µL EGF-R, 40 ng/50 µL EGF-R, 10 ng/50 µL EPHB4, 20 ng/50 µL EPHB4, 200 ng/50 µL ERBB2, 10 ng/50 µL SRC, 100 ng/50 µL FAK, 200 ng/50 µL FAK, 50 ng/50 µL VEGF-R2, 100 ng/50 µL VEGF-R3, 200 ng/50 µLTIE2; 250 ng/50 µL Poly(Glu, Tyr)4:1 for 200 ng/50 µL TIE2; 500 ng/50 µL tetra (LRRWSLG) for 50 ng/50 µL Aurora-A, 25 ng/50 µL PAK4, 25 ng/50 µL PDK1; 250 ng/50 µL tetra (LRRWSLG) for 50 ng/50 µL Aurora-B, 200 ng/50 µL Aurora-B; 125 ng/50 µL Histon H1 for 100 ng/50 µL CDK2/CycA; 250 ng/50 µL Rb-CTF for 50 ng/50 µL CDK/CycD1; 500 ng/50 µL Rb-CTF for 50 ng/50 µL CDK4/CycD1; 125 ng/50 µL Poly(ala, Glu, Lys, Tyr)6:2:5:1 for 25 ng/50 µL INS-R, 50 ng/50 µL PDGFR-beta, 100 ng/50 µL PDGFR-beta, 100 ng/50 µL FLT3, 150 ng/50 µL FLT3, 20 ng/50 µL MET, 50 ng/50 µL MET, 100 ng/50 µL MET; 250 ng/50 µL Casein for 200 ng/50 µL CK2-alpha1, 200 ng/50 µL PLK1; 1000 ng/50 µL Casein for 200 ng/50 µL PLK1, 200 ng/50 µL CK2-alpha1; 1000 ng/50 µLGSK3 (14–27) for 100 ng/50 µL AKT1; 125 ng/50 µL p53-CTM for 150 ng/50 µL CK2-alpha1, 200 ng/50 µLCK2-alpha1; 250 ng/50 µL MEK-KM for 20 ng/50 µL B-RAF-VE; autophosphorylation at ARK5, COT and SAK. After incubation (80 min, 30 °C) the reaction was stopped by adding 50 µL 2% (v/v) phosphoric acid to the reaction mixture. The microplate was washed twice with 200 µL 0.9% (v/v) saturated sodium chloride or water. The measured radioactivity, conditioned by the incorporation of [γ-^33P]-phosphate, is proportional to kinase activity. Furthermore, low control and high control were measured to determine the residual activity (%). As low controls, mixtures with substrate, but without enzyme were used to determine the unspecific binding of [γ-^33P]-phosphate to the well plate. Mixtures with enzyme, but without inhibitor were used as high controls to determine maximum enzyme activity. The IC50-values of the distinct compounds were calculated with Quattro Workflow V1.1.0.8 (Quattro Research GmbH, München, Germany). Dose response curves were generated by measurement of the residual activity of ten different inhibitor concentrations (0.1 mM, 30.0 µM, 10 µM, 3.0 µM, 1.0 µM, 0.3 µM, 0.1 µM, 30.0 nM, 10.0 nM and 3.0 nM). […]

VEGF-R2 = target: T2, VEGF-R2 (Homo sapiens, UniProt P35968)
T2 construct: host or cells: Sf9 (baculovirus)
T2 sequence (P35968 20-1356): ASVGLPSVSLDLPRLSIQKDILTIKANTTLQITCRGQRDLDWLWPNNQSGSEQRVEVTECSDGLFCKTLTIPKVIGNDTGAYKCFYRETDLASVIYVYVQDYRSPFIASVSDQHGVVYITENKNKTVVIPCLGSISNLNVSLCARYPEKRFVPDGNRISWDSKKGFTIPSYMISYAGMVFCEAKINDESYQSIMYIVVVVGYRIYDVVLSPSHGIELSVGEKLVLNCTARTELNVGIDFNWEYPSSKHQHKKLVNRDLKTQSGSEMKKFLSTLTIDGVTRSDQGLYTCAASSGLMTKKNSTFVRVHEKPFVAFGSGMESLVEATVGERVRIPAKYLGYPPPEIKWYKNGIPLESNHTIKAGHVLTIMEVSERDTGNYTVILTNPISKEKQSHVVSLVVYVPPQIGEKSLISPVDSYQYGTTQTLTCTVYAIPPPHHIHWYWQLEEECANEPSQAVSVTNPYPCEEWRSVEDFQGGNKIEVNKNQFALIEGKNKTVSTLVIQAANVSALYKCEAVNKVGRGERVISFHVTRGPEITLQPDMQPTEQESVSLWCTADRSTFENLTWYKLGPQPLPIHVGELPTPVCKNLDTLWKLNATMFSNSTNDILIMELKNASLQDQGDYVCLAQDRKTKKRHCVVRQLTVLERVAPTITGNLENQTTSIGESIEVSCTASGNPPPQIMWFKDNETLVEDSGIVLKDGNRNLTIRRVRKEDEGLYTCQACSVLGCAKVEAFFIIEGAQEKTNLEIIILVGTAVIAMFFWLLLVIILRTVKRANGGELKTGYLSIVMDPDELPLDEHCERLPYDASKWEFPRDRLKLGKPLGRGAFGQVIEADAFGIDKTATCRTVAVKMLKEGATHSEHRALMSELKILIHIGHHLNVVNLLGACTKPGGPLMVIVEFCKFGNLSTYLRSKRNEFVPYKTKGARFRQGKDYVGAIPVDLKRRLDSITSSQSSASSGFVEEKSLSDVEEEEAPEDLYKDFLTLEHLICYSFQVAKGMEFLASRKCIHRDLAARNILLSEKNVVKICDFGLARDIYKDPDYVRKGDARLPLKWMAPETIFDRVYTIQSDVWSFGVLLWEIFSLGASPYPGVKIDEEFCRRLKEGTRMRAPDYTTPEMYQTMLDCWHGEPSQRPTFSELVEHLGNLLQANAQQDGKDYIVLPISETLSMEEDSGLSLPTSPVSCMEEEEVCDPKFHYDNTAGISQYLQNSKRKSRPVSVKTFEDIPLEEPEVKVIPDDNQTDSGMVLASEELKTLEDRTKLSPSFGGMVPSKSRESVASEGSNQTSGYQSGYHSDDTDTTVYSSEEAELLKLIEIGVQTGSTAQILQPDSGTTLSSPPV
Protocol: as §1, §2

VEGF-R3 = target: T3, VEGF-R3 (Homo sapiens, UniProt P35916)
T3 construct: host or cells: Sf9 (baculovirus)
T3 sequence (P35916 25-1363): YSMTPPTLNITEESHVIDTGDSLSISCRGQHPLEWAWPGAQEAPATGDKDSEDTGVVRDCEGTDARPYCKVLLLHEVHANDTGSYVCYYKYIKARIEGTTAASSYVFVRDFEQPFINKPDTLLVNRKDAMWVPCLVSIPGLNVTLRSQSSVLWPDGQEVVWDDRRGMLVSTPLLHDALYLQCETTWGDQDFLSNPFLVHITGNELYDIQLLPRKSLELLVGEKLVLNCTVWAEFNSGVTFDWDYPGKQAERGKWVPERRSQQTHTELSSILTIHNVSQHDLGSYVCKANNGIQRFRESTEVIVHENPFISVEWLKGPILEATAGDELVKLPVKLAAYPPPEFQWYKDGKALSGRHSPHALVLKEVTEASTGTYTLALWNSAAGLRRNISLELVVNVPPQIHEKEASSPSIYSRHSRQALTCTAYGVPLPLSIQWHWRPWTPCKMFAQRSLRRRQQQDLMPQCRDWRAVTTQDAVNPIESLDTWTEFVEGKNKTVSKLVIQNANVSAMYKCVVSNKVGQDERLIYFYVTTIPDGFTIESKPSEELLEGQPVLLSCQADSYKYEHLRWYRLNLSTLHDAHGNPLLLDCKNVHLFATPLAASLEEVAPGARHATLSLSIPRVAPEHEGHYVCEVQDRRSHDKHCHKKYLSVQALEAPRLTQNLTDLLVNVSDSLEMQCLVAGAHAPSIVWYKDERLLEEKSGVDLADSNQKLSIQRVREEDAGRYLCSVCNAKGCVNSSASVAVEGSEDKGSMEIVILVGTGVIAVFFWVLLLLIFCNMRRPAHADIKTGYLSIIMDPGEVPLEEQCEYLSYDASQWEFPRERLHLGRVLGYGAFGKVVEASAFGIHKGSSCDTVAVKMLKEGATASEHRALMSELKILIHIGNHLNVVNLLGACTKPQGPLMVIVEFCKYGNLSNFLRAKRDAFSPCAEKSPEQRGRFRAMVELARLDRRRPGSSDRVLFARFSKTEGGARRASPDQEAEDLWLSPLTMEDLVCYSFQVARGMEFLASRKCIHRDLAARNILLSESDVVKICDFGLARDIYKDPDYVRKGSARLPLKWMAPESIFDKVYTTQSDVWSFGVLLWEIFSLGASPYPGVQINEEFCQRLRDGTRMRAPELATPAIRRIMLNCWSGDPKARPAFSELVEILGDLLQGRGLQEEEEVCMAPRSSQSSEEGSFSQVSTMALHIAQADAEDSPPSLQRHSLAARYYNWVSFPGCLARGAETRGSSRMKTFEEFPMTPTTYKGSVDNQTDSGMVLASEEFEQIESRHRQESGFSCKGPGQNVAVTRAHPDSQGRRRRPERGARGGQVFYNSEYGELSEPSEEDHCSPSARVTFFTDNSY
Protocol: as §1, §2

Aurora-B = target: T4, Aurora-B (Homo sapiens, UniProt Q96GD4)
T4 construct: host or cells: Sf9 (baculovirus)
T4 sequence (Q96GD4 whole entry): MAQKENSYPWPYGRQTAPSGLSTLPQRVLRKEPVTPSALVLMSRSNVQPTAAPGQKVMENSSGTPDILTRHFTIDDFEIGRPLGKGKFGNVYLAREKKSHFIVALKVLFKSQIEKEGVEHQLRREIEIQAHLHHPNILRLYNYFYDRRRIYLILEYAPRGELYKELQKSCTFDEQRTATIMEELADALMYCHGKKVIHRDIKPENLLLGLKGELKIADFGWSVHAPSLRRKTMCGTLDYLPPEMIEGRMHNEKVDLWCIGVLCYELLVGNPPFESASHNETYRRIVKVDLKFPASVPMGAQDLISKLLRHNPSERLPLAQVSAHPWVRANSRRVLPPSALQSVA
Protocol: as §1, §2

Row | remaining activity at 10 µM (Aurora-A) [%] | remaining activity at 10 µM (VEGF-R2) [%] | remaining activity at 10 µM (VEGF-R3) [%] | remaining activity at 10 µM (Aurora-B) [%] | IC50 (Aurora-A) [µM] | IC50 (VEGF-R2) [µM] | IC50 (VEGF-R3) [µM] | IC50 (Aurora-B) [µM] | SMILES
1 | 74 | 74 | 72 | 87 |  |  |  |  | O=C1CCCc2cc(-c3ccnc(Nc4ccccc4Cl)n3)ccc2N1 [Compound 2k, 7-[2-(2-Chloroanilino)pyrimidin-4-yl]-1,3,4,5-tetrahydro-2H-1-benzazepin-2-one]
2 |  |  |  |  | 2.4 | 1.8 | 4.3 | 16 | Cc1ccc(Nc2nccc(-c3ccc4c(c3)CCCC(=O)N4)n2)cc1 [Compound 2b, 7-[2-(4-Toluidino)pyrimidin-4-yl]-1,3,4,5-tetrahydro-2H-1-benzazepin-2-one]
3 | 73 | 78 | 64 | 116 |  |  |  |  | O=C1CCCc2cc(-c3ccnc(Nc4ccccc4Br)n3)ccc2N1 [Compound 2l, 7-[2-(2-Bromoanilino)pyrimidin-4-yl]-1,3,4,5-tetrahydro-2H-1-benzazepin-2-one]
4 |  |  |  |  | 3.5 | 5.4 | 4.1 | 18 | O=C1CCCc2cc(-c3ccnc(Nc4ccc(Br)cc4)n3)ccc2N1 [Compound 2g, 7-[2-(4-Bromoanilino)pyrimidin-4-yl]-1,3,4,5-tetrahydro-2H-1-benzazepin-2-one]
5 |  |  |  |  | 3.5 | 17 | 6.2 | 52 | O=C1CCCc2cc(-c3ccnc(Nc4ccc(I)cc4)n3)ccc2N1 [Compound 2h, 7-[2-(4-Iodoanilino)pyrimidin-4-yl]-1,3,4,5-tetrahydro-2H-1-benzazepin-2-one]
6 |  |  |  |  | 9.4 | 11 | 19 | 40 | O=C1CCCc2cc(-c3ccnc(Nc4ccc(Cl)cc4)n3)ccc2N1 [Compound 2f, 7-[2-(4-Chloroanilino)pyrimidin-4-yl]-1,3,4,5-tetrahydro-2H-1-benzazepin-2-one]
7 |  |  |  |  | 1.5 | 2 | 3 | 20 | CCOc1ccc(Nc2nccc(-c3ccc4c(c3)CCCC(=O)N4)n2)cc1 [Compound 2d, 7-[2-(4-Ethoxyanilino)pyrimidin-4-yl]-1,3,4,5-tetrahydro-2H-1-benzazepin-2-one]
8 |  |  |  |  | > 100 | 8.4 | 19 | > 100 | O=C1CCCc2cc(-c3ccnc(Nc4ccccc4O)n3)ccc2N1 [Compound 2j, 7-[2-(2-Hydroxyanilino)pyrimidin-4-yl]-1,3,4,5-tetrahydro-2H-1-benzazepin-2-one]
9 |  |  |  |  | > 100 | 11 | 35 | > 100 | O=C1CCCc2cc(-c3ccnc(Nc4ccc([N+](=O)[O-])cc4)n3)ccc2N1 [Compound 2i, 7-[2-(4-Nitroanilino)pyrimidin-4-yl]-1,3,4,5-tetrahydro-2H-1-benzazepin-2-one]
10 |  |  |  |  | 1.8 | 1.3 | 2.5 | 18 | COc1ccc(Nc2nccc(-c3ccc4c(c3)CCCC(=O)N4)n2)cc1 [Compound 2c, 7-[2-(4-Methoxyanilino)pyrimidin-4-yl]-1,3,4,5-tetrahydro-2H-1-benzazepin-2-one]
